From PubChem BioAssay (NCI)
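Assay format: 96-well plates, 48-hour exposure. At the TGI there is no net growth.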

How the values were obtained:
Assay in all cases: growth of human tumour cells (NCI), 48 h
SW-620 colon = tested on: SW-620 colon
CCRF-CEM leukemia = tested on: CCRF-CEM leukemia
CAKI-1 renal = tested on: CAKI-1 renal
OVCAR-5 ovarian = tested on: OVCAR-5 ovarian
COLO 205 colon = tested on: COLO 205 colon
UACC-62 melanoma = tested on: UACC-62 melanoma
UO-31 renal = tested on: UO-31 renal
HCT-116 colon = tested on: HCT-116 colon
RXF 393 renal = tested on: RXF 393 renal
OVCAR-4 ovarian = tested on: OVCAR-4 ovarian
SNB-75 CNS = tested on: SNB-75 CNS
HCC-2998 colon = tested on: HCC-2998 colon
HS 578T breast = tested on: HS 578T breast
RPMI-8226 leukemia = tested on: RPMI-8226 leukemia
SK-OV-3 ovarian = tested on: SK-OV-3 ovarian
KM12 colon = tested on: KM12 colon
SK-MEL-28 melanoma = tested on: SK-MEL-28 melanoma
786-0 renal = tested on: 786-0 renal
SR leukemia = tested on: SR leukemia
TK-10 renal = tested on: TK-10 renal
BT-549 breast = tested on: BT-549 breast
HL-60(TB) leukemia = tested on: HL-60(TB) leukemia
UACC-257 melanoma = tested on: UACC-257 melanoma
OVCAR-8 ovarian = tested on: OVCAR-8 ovarian
NCI-H460 lung = tested on: NCI-H460 lung
MCF7 breast = tested on: MCF7 breast
SF-539 CNS = tested on: SF-539 CNS
HOP-62 NSCLC = tested on: HOP-62 NSCLC
IGROV1 ovarian = tested on: IGROV1 ovarian
MDA-MB-435 = tested on: MDA-MB-435
MALME-3M melanoma = tested on: MALME-3M melanoma
M14 melanoma = tested on: M14 melanoma
SK-MEL-2 melanoma = tested on: SK-MEL-2 melanoma
SF-268 CNS = tested on: SF-268 CNS
EKVX NSCLC = tested on: EKVX NSCLC
U251 CNS = tested on: U251 CNS
NCI-H226 lung = tested on: NCI-H226 lung
NCI-H522 lung = tested on: NCI-H522 lung
DU-145 prostate = tested on: DU-145 prostate
A549 NSCLC = tested on: A549 NSCLC
SN12C renal = tested on: SN12C renal
ACHN renal = tested on: ACHN renal
OVCAR-3 ovarian = tested on: OVCAR-3 ovarian
SK-MEL-5 melanoma = tested on: SK-MEL-5 melanoma
MOLT-4 leukemia = tested on: MOLT-4 leukemia
HT29 colon = tested on: HT29 colon
HCT-15 colon = tested on: HCT-15 colon
T-47D breast = tested on: T-47D breast
LOX IMVI melanoma = tested on: LOX IMVI melanoma
SNB-19 CNS = tested on: SNB-19 CNS
PC-3 prostate = tested on: PC-3 prostate
NCI-H23 lung = tested on: NCI-H23 lung
SF-295 CNS = tested on: SF-295 CNS
MDA-MB-231 breast = tested on: MDA-MB-231 breast
MDA-N = tested on: MDA-N
K-562 leukemia = tested on: K-562 leukemia

Q: With C=C1C(=O)OC2C3C(=C)[C@@H](OC(C)=O)CC3C(C)=CC(OC(=O)C(C)(OC(C)=O)C(C)OC(C)=O)[C@@H]12 (stereo partly specified) as the compound, how does the TGI (SW-620 colon) read?
A: The TGI was 21.9 µM.

Q: And the TGI (CCRF-CEM leukemia)?
A: The TGI was 12.3 µM.

Q: And the TGI (CAKI-1 renal)?
A: Its TGI is 23.2 µM.

Q: And the TGI (OVCAR-5 ovarian)?
A: The TGI was 42.6 µM.

Q: And the TGI (COLO 205 colon)?
A: Its TGI is 28.2 µM.

Q: What about the TGI (UACC-62 melanoma) of the same compound?
A: Its TGI is 27.2 µM.

Q: And the TGI (UO-31 renal)?
A: Its TGI is 30.8 µM.

Q: What about the TGI (HCT-116 colon) of the same compound?
A: The TGI was 23.8 µM.

Q: And the TGI (RXF 393 renal)?
A: Its TGI is 31.7 µM.

Q: What about the TGI (OVCAR-4 ovarian) of the same compound?
A: The TGI was 32.2 µM.

Q: What about the TGI (SNB-75 CNS) of the same compound?
A: Its TGI is 37.1 µM.

Q: And the TGI (HCC-2998 colon)?
A: Its TGI is 33.2 µM.

Q: And the TGI (HS 578T breast)?
A: The TGI was greater than 100 µM.

Q: What about the TGI (RPMI-8226 leukemia) of the same compound?
A: Its TGI is 38.5 µM.

Q: And the TGI (SK-OV-3 ovarian)?
A: Its TGI is greater than 100 µM.

Q: What about the TGI (KM12 colon) of the same compound?
A: Its TGI is 33.4 µM.

Q: And the TGI (SK-MEL-28 melanoma)?
A: The TGI was 29 µM.

Q: And the TGI (786-0 renal)?
A: Its TGI is 33.5 µM.

Q: What about the TGI (SR leukemia) of the same compound?
A: Its TGI is greater than 100 µM.

Q: What about the TGI (TK-10 renal) of the same compound?
A: The TGI was 27.9 µM.

Q: And the TGI (BT-549 breast)?
A: Its TGI is 33 µM.

Q: What about the TGI (HL-60(TB) leukemia) of the same compound?
A: Its TGI is 6.54 µM.

Q: What about the TGI (UACC-257 melanoma) of the same compound?
A: The TGI was 32.1 µM.

Q: And the TGI (OVCAR-8 ovarian)?
A: The TGI was greater than 100 µM.

Q: And the TGI (NCI-H460 lung)?
A: Its TGI is 60.4 µM.

Q: What about the TGI (MCF7 breast) of the same compound?
A: Its TGI is 24.1 µM.

Q: What about the TGI (SF-539 CNS) of the same compound?
A: Its TGI is 33.5 µM.

Q: And the TGI (HOP-62 NSCLC)?
A: The TGI was greater than 100 µM.

Q: And the TGI (IGROV1 ovarian)?
A: Its TGI is 37.7 µM.

Q: And the TGI (MDA-MB-435)?
A: The TGI was 31.2 µM.

Q: What about the TGI (MALME-3M melanoma) of the same compound?
A: The TGI was 26.5 µM.

Q: And the TGI (M14 melanoma)?
A: The TGI was 27.8 µM.

Q: What about the TGI (SK-MEL-2 melanoma) of the same compound?
A: The TGI was 27.4 µM.

Q: And the TGI (SF-268 CNS)?
A: Its TGI is 51.1 µM.

Q: What about the TGI (EKVX NSCLC) of the same compound?
A: The TGI was 30.9 µM.

Q: And the TGI (U251 CNS)?
A: The TGI was 30.8 µM.

Q: What about the TGI (NCI-H226 lung) of the same compound?
A: Its TGI is 51.8 µM.

Q: What about the TGI (NCI-H522 lung) of the same compound?
A: Its TGI is 11.4 µM.

Q: And the TGI (DU-145 prostate)?
A: Its TGI is 30.5 µM.

Q: What about the TGI (A549 NSCLC) of the same compound?
A: Its TGI is 70.4 µM.

Q: And the TGI (SN12C renal)?
A: Its TGI is 29.5 µM.

Q: What about the TGI (ACHN renal) of the same compound?
A: Its TGI is 27 µM.

Q: What about the TGI (OVCAR-3 ovarian) of the same compound?
A: Its TGI is 26.7 µM.

Q: What about the TGI (SK-MEL-5 melanoma) of the same compound?
A: The TGI was 25.3 µM.

Q: And the TGI (MOLT-4 leukemia)?
A: The TGI was 52.2 µM.

Q: What about the TGI (HT29 colon) of the same compound?
A: The TGI was 27.5 µM.

Q: And the TGI (HCT-15 colon)?
A: Its TGI is 25.7 µM.

Q: What about the TGI (T-47D breast) of the same compound?
A: The TGI was 40.5 µM.

Q: What about the TGI (LOX IMVI melanoma) of the same compound?
A: The TGI was 27.3 µM.

Q: And the TGI (SNB-19 CNS)?
A: Its TGI is greater than 100 µM.

Q: And the TGI (PC-3 prostate)?
A: The TGI was 32.4 µM.

Q: What about the TGI (NCI-H23 lung) of the same compound?
A: Its TGI is 38.3 µM.

Q: And the TGI (SF-295 CNS)?
A: Its TGI is greater than 100 µM.

Q: What about the TGI (MDA-MB-231 breast) of the same compound?
A: Its TGI is 32.7 µM.

Q: And the TGI (MDA-N)?
A: The TGI was 30.1 µM.

Q: And the TGI (K-562 leukemia)?
A: The TGI was 32.6 µM.
